# In patent US11390648B2, “Peptide” (HYSENSBIO, priority 2017, dated 2022):
# System: Dspp gene
# Test: Dspp mRNA level in human dental pulp cells treated with peptide (real-time PCR)
# Type: cell-based
# Conditions: hDPCs, peptide 10 μg/ml, 48 hours; ratio relative to Dspp mRNA level of untreated control; GAPDH internal control; triplicate
# Method: Human dental pulp cells were separated from wisdom teeth of adults (aged 18-22) at the School of Dentistry, Seoul National University. In detail, all experiments were performed after the approval of the Institutional Review Board and the informed consent from patients. Wisdom teeth were fractured according to a method of Jung HS et al. (J Mol Histol.(2011)) to expose the dental pulps, and dental pulp tissues were separated with forceps. Each of the separated dental pulp tissues was cut into small pieces with a razor blade, put in a 60-mm dish, covered with a coverslip, and then cultured in a Dulbecco's modified Eagle's medium. It has been known that human dental pulp cells can differentiate into odontoblast, osteoblast, cementoblast, and periodontal ligament cells under various conditions (Tissue Eng Part A. 2014 April; 20 (7-8): 1342-51).
# Total RNA was extracted from human dental pulp cells (hDPCs), and human bone marrow mesenchymal stem cells (hBMSCs) with TRIzol reagent. 2 μg of the total RNA, 1 μl of reverse transcriptase, and 0.5 μg of oligo (oligo; dT) were used to synthesize cDNA. The synthesized cDNA was used in a real-time polymerase chain reaction. The real-time polymerase chain reaction was performed on an ABI PRISM 7500 sequence detection system (Applied Biosystems) and an SYBR GREEN PCR Master Mix (Takara, Japan). The real-time polymerase chain reaction was performed under conditions of 94° C., 1 min; 95° C., 15 sec; 60° C., 34 sec for 40 cycles. Results were analyzed by a comparative cycle threshold (CT) method. And the used primers are as follows (Table 17).
# The human dental pulp cells (hDPCs) cultured in Example 3 were treated with the peptides (concentration of 10 μg/ml) of each group synthesized in Example 1-1, and cultured for 48 hours. Then, mRNA levels of an odontoblast differentiation marker Dspp gene expressed in the human dental pulp cells were measured, and a ratio of the measured Dspp mRNA level relative to a Dspp mRNA level measured in a control group was calculated, respectively (Tables 18 to 33).
# The expression level of the Dspp gene was measured through RT-PCR and real-time PCR analysis described in Example 1-4. In this regard, GAPDH gene was used as an internal control. The experiments were performed in triplicate, and then mean values and standard deviations thereof were taken as measured values. The base sequence of the primers is described in Table 17 above.
row,Substance,"mRNA level of Dspp gene, Mean"
1,1 (KYQRRKK; Novel peptide) [compound 1],7.371
2,2 (KYQRRKR; Novel peptide) [compound 2],7.171
3,3 (KYQRRRK; Novel peptide) [compound 3],6.512
4,4 (KYQRRRR; Novel peptide) [compound 4],7.071
5,5 (KYQRKKK; Novel peptide) [compound 5],6.893
6,6 (KYQRKRK; Novel peptide) [compound 6],6.931
7,7 (KYQRKKR; Novel peptide) [compound 7],6.881
8,8 (KYQRKRR; Novel peptide) [compound 8],6.531
9,9 (KYRQRKK; Novel peptide) [compound 9],7.543
10,10 (KYRQRKR; Novel peptide) [compound 10],6.996
11,11 (KYRQRRK; Novel peptide) [compound 11],7.385
12,12 (KYRQRRR; Novel peptide) [compound 12],7.548
13,13 (KYRQKKK; Novel peptide) [compound 13],6.655
14,14 (KYRQKRK; Novel peptide) [compound 14],6.839
15,15 (KYRQKKR; Novel peptide) [compound 15],6.764
16,16 (KYRQKRR; Novel peptide) [compound 16],7.739
17,17 (KYKQRKK; Novel peptide) [compound 17],7.712
18,18 (KYKQRKR; Novel peptide) [compound 18],7.319
19,19 (KYKQRRK; Novel peptide) [compound 19],7.931
20,20 (KYKQRRR; Novel peptide) [compound 20],7.553
21,21 (KYKQKKK; Novel peptide) [compound 21],7.893
22,22 (KYKQKRK; Novel peptide) [compound 22],7.412

row,Substance,"mRNA level of Dspp gene, Mean"
1,23 (KYKQKKR; Novel peptide) [compound 23],9.171
2,24 (KYKQKRR; Novel peptide) [compound 24],8.512
3,25 (KYQQRKK; Novel peptide) [compound 25],2.491
4,26 (KYQQRKR; Novel peptide) [compound 26],2.623
5,27 (KYQQRRK; Novel peptide) [compound 27],2.213
6,28 (KYQQRRR; Novel peptide) [compound 28],2.781
7,29 (KYQQKKK; Novel peptide) [compound 29],2.926
8,30 (KYQQKRK; Novel peptide) [compound 30],2.011
9,31 (KYQQKKR; Novel peptide) [compound 31],2.432
10,32 (KYQQKRR; Novel peptide) [compound 32],2.303
11,33 (KYRRRKK; Novel peptide) [compound 33],3.615
12,34 (KYRRRKR; Novel peptide) [compound 34],3.727
13,35 (KYRRRRK; Novel peptide) [compound 35],3.017
14,36 (KYRRRRR; Novel peptide) [compound 36],3.256
15,37 (KYRRKKK; Novel peptide) [compound 37],3.303
16,38 (KYRRKRK; Novel peptide) [compound 38],2.099
17,39 (KYRRKKR; Novel peptide) [compound 39],3.412
18,40 (KYRRKRR; Novel peptide) [compound 40],3.109
19,41 (KYKRRKK; Novel peptide) [compound 41],2.937
20,42 (KYKRRKR; Novel peptide) [compound 42],2.808
21,43 (KYKRRRK; Novel peptide) [compound 43],2.435
22,44 (KYKRRRR; Novel peptide) [compound 44],2.517

row,Substance,"mRNA level of Dspp gene, Mean"
1,45 (KYKRKKK; Novel peptide) [compound 45],3.051
2,46 (KYKRKRK; Novel peptide) [compound 46],2.733
3,47 (KYKRKKR; Novel peptide) [compound 47],2.439
4,48 (KYKRKRR; Novel peptide) [compound 48],2.602
5,49 (KYQKRKK; Novel peptide) [compound 49],1.631
6,50 (KYQKRKR; Novel peptide) [compound 50],1.803
7,51 (KYQKRRK; Novel peptide) [compound 51],1.569
8,52 (KYQKRRR; Novel peptide) [compound 52],1.949
9,53 (KYQKKKK; Novel peptide) [compound 53],1.422
10,54 (KYQKKRK; Novel peptide) [compound 54],1.638
11,55 (KYQKKKR; Novel peptide) [compound 55],2
12,56 (KYQKKRR; Novel peptide) [compound 56],1.909
13,57 (KYNKRKK; Novel peptide) [compound 57],2.415
14,58 (KYNKRKR; Novel peptide) [compound 58],2.677
15,59 (KYNKRRK; Novel peptide) [compound 59],2.463
16,60 (KYNKRRR; Novel peptide) [compound 60],2.089
17,61 (KYNKKKK; Novel peptide) [compound 61],1.909
18,62 (KYNKKRK; Novel peptide) [compound 62],2.752
19,63 (KYNKKKR; Novel peptide) [compound 63],2.373
20,64 (KYNKKRR; Novel peptide) [compound 64],1.829
21,65 (KYNRRKK; Novel peptide) [compound 65],2.201
